Each structure is given as a SMILES string.

The target in one data set is T1, recombinant GST-GK (Homo sapiens, UniProt P35557).
T1 sequence (P35557 1-465): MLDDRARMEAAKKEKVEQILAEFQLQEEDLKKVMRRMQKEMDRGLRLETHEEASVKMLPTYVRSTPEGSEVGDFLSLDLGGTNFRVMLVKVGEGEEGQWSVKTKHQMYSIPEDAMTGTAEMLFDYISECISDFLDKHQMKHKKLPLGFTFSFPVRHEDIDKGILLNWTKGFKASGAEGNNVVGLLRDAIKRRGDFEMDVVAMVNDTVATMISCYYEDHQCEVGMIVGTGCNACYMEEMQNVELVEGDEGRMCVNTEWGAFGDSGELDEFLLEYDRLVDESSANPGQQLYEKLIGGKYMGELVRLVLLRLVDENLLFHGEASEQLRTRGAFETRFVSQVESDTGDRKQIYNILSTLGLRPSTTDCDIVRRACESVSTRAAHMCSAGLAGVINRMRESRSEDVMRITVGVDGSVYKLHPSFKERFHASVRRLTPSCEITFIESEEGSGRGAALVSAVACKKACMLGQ
The data set is described as follows: in vitro assay measuring the activation of recombinant GST-GK. The class given is biochemical. The note with it: thioNADH-coupled assay read at 405 nm. From the text: The glucokinase activation in vitro may be determined by measuring the activation of recombinant GST-GK by a compound of the present invention in the absence or the presence of GKRP, a 68,000 Da protein inhibitor of GK. In these assays, formation of glucose-6-phosphate is coupled directly to the formation of thioNADH. GST-GK catalyzes the reaction of glucose and Mg-ATP to produce glucose-6-phosphate and ADP. Glucose-6-phosphate dehydrogenase (G6PDH) reduces thionicotinamide (thioNAD) to thioNADH. The assay measures the formation of […] at 405 nM.
The basic GK assay components are as follows: 25 mM HEPES (pH 7.1), 25 mM KCl, 2.5 mM MgCl2, 1 mM ATP (Sigma A-5394), 1 mM DTT, 1 mM thioNAD (Sigma T-7375), 80 units/mL G6PDH (Sigma G-5885), 10 mM glucose and […] GST-GK (110 nM). For assessing reversal of GK inhibition by GKRP, 20 μM Fructose-1-phosphate ([…]) and 25 μg/mL of recombinant GKRP (370 nM) are added to these assay components. F-1-P at 1 μM is used as a control in the GK/GKRP assay. F-1-P reverses inhibition of GST-GK by GKRP.
The assay is done in standard, 96-well, round-bottom plates and the total assay volume is 25 μL. […] The plates are then delivered via the Zymark XP arm to a Thermomax plate reader and read kinetically over three min at 405 nM at RT. Units are expressed as milli-optical density per minute (mOD/min).

`CCOCS(=O)(=O)c1ccc(C(CC2CCCC2)C(=O)Nc2nc3ccc(OC)nc3s2)cc1` (stereo not shown) [Example 1, 3-Cyclopentyl-2-(4-ethoxymethanesulfonyl-phenyl)-N-(5-methoxy-thiazolo[5,4-b]pyridin-2-yl)-propionamide]: the melting point (in general, the temperature, or range, at which the solid turns liquid) fell in the range of 158 to 160 °C. Also, the EC50 (in general, the concentration needed to bring the measured effect to its halfway point) on recombinant GST-GK was ~106 nM. In turn, `COc1ccc2nc(NC(=O)C(CC3CCCC3)c3ccc(S(=O)(=O)CC(C)=O)cc3)sc2n1` (stereo not shown) [Example 2, 3-Cyclopentyl-N-(5-methoxy-thiazolo[5,4-b]pyridin-2-yl)-2-[4-(2-oxo-propane-1-sulfonyl)-phenyl]-propionamide] came in with a melting point of 67 to 71 °C.

`COc1ccc2nc(NC(=O)C(CC3CCCC3)c3ccc(S(=O)(=O)CCc4ccccc4)cc3)sc2n1` (stereo not shown) [Example 3, 3-Cyclopentyl-N-(5-methoxy-thiazolo[5,4-b]pyridin-2-yl)-2-[4-(2-phenyl-ethanesulfonyl)-phenyl]-propionamide] showed a melting point of 169 to 172 °C.

Source of the values: patent publication US7781451B2, “Thiazolopyridine derivatives, pharmaceut ical conditions containing them and methods of treating glucokinase mediated conditions” (Novartis AG, priority 2004, dated 2010).
